Tests used:
[1] = tested on: S. aureus (ATCC 29213); experiment: Bacterial assay: MIC against S. aureus; format: cell-based, Staphylococcus aureus; conditions: Staphylococcus aureus, ATCC29213, read-out: minimal inhibitory concentration (MIC)
[2] = tested on: S. pyogenes (ATCC 51339); experiment: Bacterial assay: MIC against S. pyogenes; format: cell-based, Streptococcus pyogenes; conditions: Streptococcus pyogenes, ATCC51339, read-out: minimal inhibitory concentration (MIC)
[3] = tested on: H. influenzae (ATCC 49247); experiment: Bacterial assay: MIC against H. influenzae; format: cell-based; conditions: Haemophilus influenzae, ATCC49247; H. influenzae ATCC 49247; read-out: minimal inhibitory concentration (MIC)

CCNC(=O)Nc1nc2cc(-c3cnc(C(C)(C)O)nc3)cc(-c3cnccn3)c2s1 [Compound 39, 1-ethyl-3-[5-[2-(1-hydroxy-1-methyl-ethyl)pyrimidin-5-yl]-7-pyrazin-2-yl-1,3-benzothiazol-2-yl]urea]
MIC [1]: ≤ 1 µg/mL | MIC [2]: ≤ 1 µg/mL | MIC [3]: ≤ 2 µg/mL

CCNC(=O)Nc1nc2cc(-c3cnc(C(O)CO)nc3)cc(-c3ccccn3)c2s1 (stereo not drawn) [Compound 40, 1-[5-[2-(1,2-dihydroxyethyl)pyrimidin-5-yl]-7-(2-pyridyl)-1,3-benzothiazol-2-yl]-3-ethyl-urea]
MIC [1]: ≤ 1 µg/mL | MIC [2]: ≤ 1 µg/mL | MIC [3]: ≤ 2 µg/mL

CCNC(=O)Nc1nc2cc(-c3cnc(C(C)(C)O)nc3)cc(-c3cc(C)ncn3)c2s1 [Compound 43, 1-ethyl-3-[5-[2-(1-hydroxy-1-methyl-ethyl)pyrimidin-5-yl]-7-(6-methylpyrimidin-4-yl)-1,3-benzothiazol-2-yl]urea]
MIC [1]: ≤ 1 µg/mL | MIC [2]: ≤ 1 µg/mL | MIC [3]: ≤ 2 µg/mL

CCNC(=O)Nc1nc2cc(-c3cnc(C(C)(C)O)nc3)cc(-c3cc(CNC4CC4)ccn3)c2s1 [Compound 53, 1-[7-[4-[(cyclopropylamino)methyl]-2-pyridyl]-5-[2-(1-hydroxy-1-methyl-ethyl)pyrimidin-5-yl]-1,3-benzothiazol-2-yl]-3-ethyl-urea]
MIC [1]: ≤ 1 µg/mL | MIC [2]: ≤ 1 µg/mL | MIC [3]: ≤ 2 µg/mL

CCNC(=O)Nc1nc2cc(-c3cnc(C(C)O)nc3)cc(-c3cc(CN4CCOCC4)ccn3)c2s1 (stereo not drawn) [Compound 55, 1-ethyl-3-[5-[2-(1-hydroxyethyl)pyrimidin-5-yl]-7-[4-(morpholinomethyl)-2-pyridyl]-1,3-benzothiazol-2-yl]urea]
MIC [1]: ≤ 1 µg/mL | MIC [2]: ≤ 1 µg/mL | MIC [3]: ≤ 2 µg/mL

CCNC(=O)Nc1nc2cc(-c3cnc(C(C)(C)O)nc3)cc(-c3ccc(OCCN4CCOCC4)cn3)c2s1 [Compound 56, 1-ethyl-3-[5-[2-(1-hydroxy-1-methyl-ethyl)pyrimidin-5-yl]-7-[5-(2-morpholinoethoxy)-2-pyridyl]-1,3-benzothiazol-2-yl]urea]
MIC [1]: ≤ 1 µg/mL | MIC [2]: ≤ 1 µg/mL | MIC [3]: ≤ 2 µg/mL

CCNC(=O)Nc1nc2cc(-c3cnc(C(O)C4CC4)nc3)cc(-c3ccccn3)c2s1 (stereo not drawn) [Compound 58, 1-[5-[2-[cyclopropyl(hydroxy)methyl]pyrimidin-5-yl]-7-(2-pyridyl)-1,3-benzothiazol-2-yl]-3-ethyl-urea]
MIC [1]: ≤ 1 µg/mL | MIC [2]: ≤ 1 µg/mL | MIC [3]: ≤ 2 µg/mL

CCNC(=O)Nc1nc2cc(-c3cnc(C(O)CC)nc3)cc(-c3ccccn3)c2s1 (stereo not drawn) [Compound 59, 1-ethyl-3-[5-[2-(1-hydroxypropyl)pyrimidin-5-yl]-7-(2-pyridyl)-1,3-benzothiazol-2-yl]urea]
MIC [1]: ≤ 1 µg/mL | MIC [2]: ≤ 1 µg/mL | MIC [3]: ≤ 2 µg/mL

CCCC(O)c1ncc(-c2cc(-c3ccccn3)c3sc(NC(=O)NCC)nc3c2)cn1 (stereo not drawn) [Compound 61, 1-ethyl-3-[5-[2-(1-hydroxybutyl)pyrimidin-5-yl]-7-(2-pyridyl)-1,3-benzothiazol-2-yl]urea]
MIC [1]: ≤ 1 µg/mL | MIC [2]: ≤ 1 µg/mL | MIC [3]: ≤ 2 µg/mL

CCNC(=O)Nc1nc2cc(-c3cnc([C@@H](C)OC(=O)[C@H](N)C(C)C)nc3)cc(-c3ccccn3)c2s1 [Compound 62, [(1R)-1-[5-[2-(ethylcarbamoylamino)-7-(2-pyridyl)-1,3-benzothiazol-5-yl]pyrimidin-2-yl]ethyl] (2R)-2-amino-3-methyl-butanoate]
MIC [1]: ≤ 1 µg/mL | MIC [2]: ≤ 1 µg/mL | MIC [3]: ≤ 2 µg/mL

CCNC(=O)Nc1nc2cc(-c3cnc([C@H](C)OC(=O)[C@H](N)C(C)C)nc3)cc(-c3ccccn3)c2s1 [Compound 63, [(1S)-1-[5-[2-(ethylcarbamoylamino)-7-(2-pyridyl)-1,3-benzothiazol-5-yl]pyrimidin-2-yl]ethyl] (2R)-2-amino-3-methyl-butanoate]
MIC [1]: ≤ 1 µg/mL | MIC [2]: ≤ 1 µg/mL | MIC [3]: ≤ 2 µg/mL

CCNC(=O)Nc1nc2cc(-c3cnc(C(C)O)nc3)cc(-c3cc(CN4CC[C@H](F)C4)ccn3)c2s1 (stereo partly drawn) [Compound 64, 1-ethyl-3-[7-[4-[[(3S)-3-fluoropyrrolidin-1-yl]methyl]-2-pyridyl]-5-[2-(1-hydroxyethyl)pyrimidin-5-yl]-1,3-benzothiazol-2-yl]urea]
MIC [1]: ≤ 1 µg/mL | MIC [2]: ≤ 1 µg/mL | MIC [3]: ≤ 2 µg/mL

CCNC(=O)Nc1nc2cc(-c3cnc(C(C)O)nc3)cc(-c3cc(CN4CCOCC4C)ccn3)c2s1 (stereo not drawn) [Compound 68, 1-ethyl-3-[5-[2-(1-hydroxyethyl)pyrimidin-5-yl]-7-[4-[(3-methylmorpholin-4-yl)methyl]-2-pyridyl]-1,3-benzothiazol-2-yl]urea]
MIC [1]: ≤ 1 µg/mL | MIC [2]: ≤ 1 µg/mL | MIC [3]: ≤ 2 µg/mL

CCNC(=O)Nc1nc2cc(-c3cnc(C(C)O)nc3)cc(-c3cc(CN4C[C@@H](C)O[C@@H](C)C4)ccn3)c2s1 (stereo partly drawn) [Compound 69, 1-[7-[4-[[(2R,6S)-2,6-dimethylmorpholin-4-yl]methyl]-2-pyridyl]-5-[2-(1-hydroxyethyl)pyrimidin-5-yl]-1,3-benzothiazol-2-yl]-3-ethyl-urea]
MIC [1]: ≤ 1 µg/mL | MIC [2]: ≤ 1 µg/mL | MIC [3]: ≤ 2 µg/mL

[2H]C1([2H])OC([2H])([2H])C([2H])([2H])N(Cc2ccnc(-c3cc(-c4cnc(C(C)O)nc4)cc4nc(NC(=O)NCC)sc34)c2)C1([2H])[2H] (stereo not drawn) [Compound 70, 1-ethyl-3-[5-[2-(1-hydroxyethyl)pyrimidin-5-yl]-7-[4-[(2,2,3,3,5,5,6,6-octadeuteriomorpholin-4-yl)methyl]-2-pyridyl]-1,3-benzothiazol-2-yl]urea]
MIC [1]: ≤ 1 µg/mL | MIC [2]: ≤ 1 µg/mL | MIC [3]: ≤ 2 µg/mL

CCNC(=O)Nc1nc2cc(-c3cnc(C(C)O)nc3)cc(-c3cc(CN4CC(C)OCC4C)ccn3)c2s1 (stereo not drawn) [Compound 71, 1-[7-[4-[(2,5-dimethylmorpholin-4-yl)methyl]-2-pyridyl]-5-[2-(1-hydroxyethyl)pyrimidin-5-yl]-1,3-benzothiazol-2-yl]-3-ethyl-urea]
MIC [1]: ≤ 1 µg/mL | MIC [2]: ≤ 1 µg/mL | MIC [3]: ≤ 2 µg/mL

CCNC(=O)Nc1nc2cc(-c3cnc(C(C)O)nc3)cc(-c3cc(CN4CC5(COC5)C4)ccn3)c2s1 (stereo not drawn) [Compound 73, 1-ethyl-3-[5-[2-(1-hydroxyethyl)pyrimidin-5-yl]-7-[4-(6-oxa-2-azaspiro[3.3]heptan-2-ylmethyl)-2-pyridyl]-1,3-benzothiazol-2-yl]urea]
MIC [1]: ≤ 1 µg/mL | MIC [2]: ≤ 1 µg/mL | MIC [3]: ≤ 2 µg/mL

CCNC(=O)Nc1nc2cc(-c3cnc(N4CCC(C)(C(=O)O)CC4)nc3)cc(-c3cc(C(C)(C)O)ccn3)c2s1 [Compound 74, 1-[5-[2-(ethylcarbamoylamino)-7-[4-(1-hydroxy-1-methyl-ethyl)-2-pyridyl]-1,3-benzothiazol-5-yl]pyrimidin-2-yl]-4-methyl-piperidine-4-carboxylic acid]
MIC [1]: ≤ 1 µg/mL | MIC [2]: ≤ 1 µg/mL | MIC [3]: ≤ 2 µg/mL

CCNC(=O)Nc1nc2cc(-c3cnc(C(C)O)nc3)cc(-c3cc(OCCN4CCOCC4)ccn3)c2s1 (stereo not drawn) [Compound 75, 1-ethyl-3-[5-[2-(1-hydroxyethyl)pyrimidin-5-yl]-7-[4-(2-morpholinoethoxy)-2-pyridyl]-1,3-benzothiazol-2-yl]urea]
MIC [1]: ≤ 1 µg/mL | MIC [2]: ≤ 1 µg/mL | MIC [3]: ≤ 2 µg/mL

CCNC(=O)Nc1nc2cc(-c3cnc(C(C)O)nc3)cc(-c3cc(CN4CC(OC)C4)ccn3)c2s1 (stereo not drawn) [Compound 76, 1-ethyl-3-[5-[2-(1-hydroxyethyl)pyrimidin-5-yl]-7-[4-[(3-methoxyazetidin-1-yl)methyl]-2-pyridyl]-1,3-benzothiazol-2-yl]urea]
MIC [1]: ≤ 1 µg/mL | MIC [2]: ≤ 1 µg/mL | MIC [3]: ≤ 2 µg/mL

CCNC(=O)Nc1nc2cc(-c3cnc(C(C)(C)O)nc3)cc(-c3cc(OCCOC)ccn3)c2s1 [Compound 80, 1-ethyl-3-[5-[2-(1-hydroxy-1-methyl-ethyl)pyrimidin-5-yl]-7-[4-(2-methoxyethoxy)-2-pyridyl]-1,3-benzothiazol-2-yl]urea]
MIC [1]: ≤ 1 µg/mL | MIC [2]: ≤ 1 µg/mL | MIC [3]: ≤ 2 µg/mL

CCNC(=O)Nc1nc2cc(-c3cnc(C(O)CN4CCOCC4)nc3)cc(-c3ccccn3)c2s1 (stereo not drawn) [Compound 81, 1-ethyl-3-[5-[2-(1-hydroxy-2-morpholino-ethyl)pyrimidin-5-yl]-7-(2-pyridyl)-1,3-benzothiazol-2-yl]urea]
MIC [1]: ≤ 1 µg/mL | MIC [2]: ≤ 1 µg/mL | MIC [3]: ≤ 2 µg/mL

CNC(=O)Nc1nc2cc(-c3cnc(C(C)(C)O)nc3)cc(-c3ccccn3)c2s1 [Compound 82, 1-[5-[2-(1-hydroxy-1-methyl-ethyl)pyrimidin-5-yl]-7-(2-pyridyl)-1,3-benzothiazol-2-yl]-3-methyl-urea]
MIC [1]: ≤ 1 µg/mL | MIC [2]: ≤ 1 µg/mL | MIC [3]: ≤ 2 µg/mL

CNC(=O)Nc1nc2cc(-c3cnc(C(C)O)nc3)cc(-c3ccccn3)c2s1 (stereo not drawn) [Compound 83, 1-[5-[2-(1-hydroxyethyl)pyrimidin-5-yl]-7-(2-pyridyl)-1,3-benzothiazol-2-yl]-3-methyl-urea]
MIC [1]: ≤ 1 µg/mL | MIC [2]: ≤ 1 µg/mL | MIC [3]: ≤ 2 µg/mL

CCNC(=O)Nc1nc2cc(-c3cnc(C(C)(C)O)nc3)cc(-c3cc(N4CCC(C)(C(=O)O)CC4)ncn3)c2s1 [Compound 87, 1-[6-[2-(ethylcarbamoylamino)-5-[2-(1-hydroxy-1-methyl-ethyl)pyrimidin-5-yl]-1,3-benzothiazol-7-yl]pyrimidin-4-yl]-4-methyl-piperidine-4-carboxylic acid]
MIC [1]: ≤ 1 µg/mL | MIC [2]: ≤ 1 µg/mL | MIC [3]: ≤ 2 µg/mL

CCNC(=O)Nc1nc2cc(-c3cnc(N4CCC(C)(C(=O)O)CC4)nc3)cc(-c3cc(C(C)O)ccn3)c2s1 (stereo not drawn) [Compound 88, 1-[5-[2-(ethylcarbamoylamino)-7-[4-(1-hydroxyethyl)-2-pyridyl]-1,3-benzothiazol-5-yl]pyrimidin-2-yl]-4-methyl-piperidine-4-carboxylic acid]
MIC [1]: ≤ 1 µg/mL | MIC [2]: ≤ 1 µg/mL | MIC [3]: ≤ 2 µg/mL
